According to ChEMBL document CHEMBL3872286, “Identification and Mechanistic Evaluation of Hemozoin-Inhibiting Triarylimidazoles Active against Plasmodium falciparum” (ACS Med Chem Lett, 2017):
Calls of active or inactive are those of the source. The rule behind the calls is not given here.

Tests used:
[1] = Inhibition of beta-hematin formation incubated for 5 to 6 hrs by NP40 detergent-mediated assay
[2] = system: Plasmodium falciparum; experiment: Antimalarial activity against chloroquine-sensitive asexual erythrocyte stage of Plasmodium falciparum NF54 infected in human type O+ erythrocytes assessed as growth inhibition incubated for 48 hrs by NBT dye based LDH release assay; format: functional, cell-based; details: NF54, 48 h
[3] = system: Plasmodium falciparum; experiment: Antimalarial activity against chloroquine-resistant asexual erythrocyte stage of Plasmodium falciparum K1 infected in human type O+ erythrocytes assessed as growth inhibition incubated for 48 hrs by NBT dye based LDH release assay; format: functional, cell-based; details: K1, 48 h
[4] = Resistance index, ratio of IC50 for chloroquine-resistant asexual erythrocyte stage of Plasmodium falciparum K1 infected in human type O+ erythrocytes to IC50 for chloroquine-sensitive asexual erythrocyte stage of Plasmodium falciparum NF54 infected in human type O+ erythrocytes; format: functional
[5] = system: Plasmodium falciparum; experiment: Antimalarial activity against chloroquine-sensitive asexual erythrocyte stage of Plasmodium falciparum D6 infected in human type O+ erythrocytes assessed as growth inhibition incubated for 48 hrs by NBT dye based LDH release assay; format: functional, cell-based; details: D6, 48 h
[6] = Cytotoxicity against CHO cells assessed as decrease in cell viability by MTT assay; format: toxicity, cell-based, Cricetulus griseus; details: chinese hamster
[7] = Selectivity index, ratio of cytotoxic activity against CHO cells to IC50 for Plasmodium falciparum infected in human type O+ erythrocytes; format: toxicity, cell-based; details: hamster, read-out: Selectivity Index
[8] = system: Plasmodium falciparum; experiment: Antimalarial activity against chloroquine-sensitive Plasmodium falciparum D6 infected in human erythrocytes assessed as inhibition of beta-hematin formation by measuring increase in intracellular free heme level; format: functional, cell-based
[9] = system: Plasmodium falciparum; experiment: Antimalarial activity against chloroquine-resistant asexual erythrocyte stage of Plasmodium falciparum K1 infected in human type O+ erythrocytes assessed as growth inhibition incubated for 72 hrs by NBT dye based LDH release assay; format: functional, cell-based; details: K1, 72 h
[10] = system: Plasmodium falciparum; experiment: Antimalarial activity against chloroquine-sensitive Plasmodium falciparum D6 infected in human erythrocytes assessed as inhibition of beta-hematin formation by measuring increase in intracellular free heme level at 2.5 times IC50; format: functional, cell-based; parameters: scale not given: the % may be the effect or the level left
[11] = system: Plasmodium falciparum; experiment: Inhibition of beta-hematin formation in human erythrocytes infected with chloroquine-sensitive Plasmodium falciparum D6 assessed as increase in intracellular free heme level by SYBR Green I fluorescence assay; parameters: scale not given: the % may be the effect or the level left
[12] = system: Plasmodium falciparum; experiment: Antimalarial activity against chloroquine-sensitive asexual erythrocyte stage of Plasmodium falciparum NF54 infected in human type O+ erythrocytes assessed as decrease in DNA level by flow cytometry; format: functional, cell-based
[13] = system: Plasmodium falciparum; experiment: Antimalarial activity against chloroquine-sensitive asexual erythrocyte stage of Plasmodium falciparum NF54 infected in human type O+ erythrocytes assessed as smaller and less complex DNA by flow cytometry; format: functional, cell-based
[14] = system: Plasmodium falciparum; experiment: Antimalarial activity against chloroquine-sensitive asexual erythrocyte stage of Plasmodium falciparum NF54 infected in human type O+ erythrocytes assessed as pyknosis at 3 times IC50 by light microscopy; format: functional, cell-based

| IC50 [1] [µM] | Compound | IC50 [2] [µM] | IC50 [5] [µM] | also measured |
| --- | --- | --- | --- | --- |
| 347 | Oc1ccc(-c2ncc[nH]2)cc1 | > 20 | – | – |
| 25.4 | c1ccc(-c2nc(-c3ccncc3)[nH]c2-c2ccccc2)cc1 | – | 10.8 | – |
| 19 | O=[N+]([O-])c1ccc(-c2nc(-c3ccccc3)c(-c3ccccc3)[nH]2)cc1 | 15 | – | Activity [6]: 149 µM; selectivity ratio [7]: 7.8; Activity [8]: > 20 fg |
| 2.4 | COc1cc(-c2nc(-c3ccccc3)c(-c3ccc(O)cc3)[nH]2)cc(OC)c1O | – | 0.7 | – |
| 12.7 | Brc1ccc2[nH]cc(-c3nc(-c4ccccc4)c(-c4ccccc4)[nH]3)c2c1 | – | 2.24 | – |
| 12.6 | COc1cc(-c2nc(-c3ccccc3)c(-c3ccc(Br)cc3)[nH]2)cc(OC)c1O | – | 0.31 | – |
| 17.7 | Oc1ccc(-c2nc(-c3ccccc3)c(-c3ccccc3)[nH]2)cc1 | > 32 | – | – |
| 6.2 | COc1cc(-c2nc(-c3ccc4c(c3)S(=O)(=O)c3ccccc3-4)c(-c3ccccc3)[nH]2)cc(OC)c1O | – | 0.61 | – |
| 315 | CCN(CC)CCCC(C)Nc1ccnc2cc(Cl)ccc12 (stereo not given) [CHLOROQUINE] | – | – | – |
| 5.6 | Oc1ccc(-c2nc(-c3ccccc3)c(-c3ccc(Br)cc3)[nH]2)cc1 | – | 9.06 | Activity [11]: 43% |
| > 1000 | FC(F)(F)Oc1ccc(-c2nc(-c3ccccc3)c(-c3ccccc3)[nH]2)cc1 | 4.2 | – | Activity [6]: 29 µM; selectivity ratio [7]: 6.9; Activity [12]: Active; Activity [13]: Active; Activity [14]: Active |
| 18.7 | CCOc1cc(-c2nc(-c3ccc(F)cc3)c(-c3ccc(F)cc3)[nH]2)ccc1O | – | 2.4 | – |

The next lines start with the compound.

| Compound | IC50 [1] [µM] | IC50 [2] [µM] | IC50 [5] [µM] | also measured |
| --- | --- | --- | --- | --- |
| COc1cc(-c2nc(-c3ccccc3)c(-c3ccccc3)[nH]2)cc(OC)c1O | 10.2 | 1.3 | – | IC50 [3]: 1.9 µM; Ratio IC50 [4]: 1.5 |
| COc1cc(OC)cc(-c2nc(-c3ccccc3)c(-c3ccc(Cl)cc3)[nH]2)c1 | 16.6 | 1.7 | – | IC50 [3]: 2.7 µM; Ratio IC50 [4]: 1.6 |
| COc1cc(-c2nc(-c3ccccc3)c(-c3ccccc3)[nH]2)cc(OC)c1OC | 10.9 | 3 | – | – |
| COc1cc(OC)cc(-c2nc(-c3ccccc3)c(-c3ccccc3)[nH]2)c1 | 14.6 | 7 | – | IC50 [9]: 4.7 µM; Activity [6]: > 269 µM; Ratio IC50 [4]: 0.7; selectivity ratio [7]: > 206; Activity [10]: > 50%; Activity [8]: Dose dependent effect |
| c1ccc(-c2ncc[nH]2)cc1 [2-PHENYLIMIDAZOLE] | > 1000 | – | – | – |
| COc1ccc(-c2nc(-c3cc(OC)cc(OC)c3)[nH]c2-c2ccc(OC)cc2)cc1 | 13.8 | 1.7 | – | IC50 [3]: 1.8 µM; Activity [6]: > 240 µM; Ratio IC50 [4]: 1.1; selectivity ratio [7]: > 141; Activity [10]: > 50%; Activity [8]: Dose dependent effect |
| Nc1ccc(-c2nc(-c3ccccc3)c(-c3ccccc3)[nH]2)cc1 | 16.1 | 42 | – | – |
| COc1cc(OC)c(-c2nc(-c3ccsc3)c(-c3ccccc3)[nH]2)cc1OC | 10 | – | 11.7 | – |
| c1ccc(-c2nc(-c3ccccc3)c(-c3ccccc3)[nH]2)cc1 | > 1000 | – | > 20 | – |
